The NIST ThermoML archive (doi:10.1016/j.jct.2017.03.002)

Assays:
[1] = for surface tension liquid-gas: Capillary rise; for vapor or sublimation pressure: Closed cell (Static) method
[2] = xn = mol fraction of the nth substance listed; details: Capillary rise

CC [ethane]
[1]
Details | surface tension liquid-gas [mN/m]
274.62 K | 2.95
279.17 K | 2.4
283.79 K | 1.85
291.25 K | 1.05
293.15 K | 0.95
294.16 K | 0.91
295.04 K | 0.81
297.18 K | 0.62
299.13 K | 0.43
301.25 K | 0.27
303.1 K | 0.13

[1]
Details | Critical pressure [kPa] | Critical temperature [K] | vapor or sublimation pressure [kPa]
274.62 K, Liquid | – | – | 2472.5
279.17 K, Liquid | – | – | 2753.2
283.79 K, Liquid | – | – | 3060.9
291.25 K, Liquid | – | – | 3615.2
293.15 K, Liquid | – | – | 3764.3
294.16 K, Liquid | – | – | 3848
295.04 K, Liquid | – | – | 3919.9
297.18 K, Liquid | – | – | 4105.5
299.13 K, Liquid | – | – | 4277.5
301.25 K, Liquid | – | – | 4471.9
303.1 K, Liquid | – | – | 4650.3
304.95 K, Liquid | – | – | 4832.5
Liquid, Direct measurement | 4870 | – | –
Liquid, Visual observation in a stirred cell | – | 305.39 | –

C [methane] + CCC
[2]
Details | surface tension liquid-gas [mN/m]
272.08 K, x1 = 0.139 | 7.06
272.1 K, x1 = 0.45 | 1.71
272.14 K, x1 = 0.0508 | 9.38
272.24 K, x1 = 0.105 | 7.99
272.25 K, x1 = 0.32 | 3.54
272.28 K, x1 = 0.493 | 1.36
272.29 K, x1 = 0.265 | 4.85
272.33 K, x1 = 0.391 | 2.63
272.34 K, x1 = 0.206 | 5.99
272.35 K, x1 = 0.554 | 0.51
285.35 K, x1 = 0.0217 | 7.89
285.37 K, x1 = 0.0609 | 7.13
285.39 K, x1 = 0.398 | 1.57
285.5 K, x1 = 0.323 | 2.35
285.5 K, x1 = 0.525 | 0.34
285.55 K, x1 = 0.279 | 3.1
285.55 K, x1 = 0.474 | 0.76
285.65 K, x1 = 0.165 | 5.02
285.76 K, x1 = 0.122 | 6.1
303.15 K, x1 = 0.117 | 4.12
303.35 K, x1 = 0.318 | 1.27
303.37 K, x1 = 0.389 | 0.62
303.37 K, x1 = 0.433 | 0.27
303.45 K, x1 = 0.201 | 2.99

CCC [propane]
[1]
Details | surface tension liquid-gas [mN/m]
270.51 K | 10.4
271.77 K | 10.3
280.13 K | 9.28
285.35 K | 8.37
287.35 K | 8.37
289.65 K | 8.09
291.75 K | 7.78
297.98 K | 7.12
300.92 K | 6.57
303.37 K | 6.48
314.06 K | 4.99

[1], Liquid
Details | vapor or sublimation pressure [kPa]
270.51 K | 437.5
271.77 K | 456
280.13 K | 583.7
285.35 K | 680.6
287.35 K | 715.4
289.65 K | 762.1
291.75 K | 806.2
297.98 K | 948.2
300.92 K | 1021.2
303.37 K | 1083.1
314.06 K | 1398

CCC [propane] + C
[2], x2 = 0
Details | surface tension liquid-gas [mN/m]
271.77 K | 10.3
285.35 K | 8.37
303.37 K | 6.48
